# Measurements taken from patent publication US9657002B2, “Oxindole derivatives carrying an oxetane substituent and use thereof for treating vassopressin-related diseases” (AbbVie Deutschland GmbH & Co. KG, priority 2013, dated 2017).
# Key:
# [1] = target: human vasopressin V1a receptor (Homo sapiens, UniProt P37288); assay: Vasopressin V1a receptor binding assay; conditions: selectivity quotient, human V1a vs human V1b
# [2] = target: T1, human vasopressin V1b receptor (Homo sapiens, UniProt P47901); assay: biochemical
# T1 sequence (P47901 1-424): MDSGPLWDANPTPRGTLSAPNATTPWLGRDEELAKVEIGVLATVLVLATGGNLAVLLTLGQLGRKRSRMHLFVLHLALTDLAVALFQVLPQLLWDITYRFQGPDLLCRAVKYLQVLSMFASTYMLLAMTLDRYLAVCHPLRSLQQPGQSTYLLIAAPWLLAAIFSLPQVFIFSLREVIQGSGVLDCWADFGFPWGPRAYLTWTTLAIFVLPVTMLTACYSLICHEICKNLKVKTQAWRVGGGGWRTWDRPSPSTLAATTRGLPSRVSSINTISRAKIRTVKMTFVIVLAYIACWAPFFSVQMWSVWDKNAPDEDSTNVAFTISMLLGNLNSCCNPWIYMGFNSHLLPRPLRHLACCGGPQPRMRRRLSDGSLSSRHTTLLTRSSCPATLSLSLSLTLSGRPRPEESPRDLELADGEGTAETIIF
# Sequence of human vasopressin V1a receptor (P37288 whole entry): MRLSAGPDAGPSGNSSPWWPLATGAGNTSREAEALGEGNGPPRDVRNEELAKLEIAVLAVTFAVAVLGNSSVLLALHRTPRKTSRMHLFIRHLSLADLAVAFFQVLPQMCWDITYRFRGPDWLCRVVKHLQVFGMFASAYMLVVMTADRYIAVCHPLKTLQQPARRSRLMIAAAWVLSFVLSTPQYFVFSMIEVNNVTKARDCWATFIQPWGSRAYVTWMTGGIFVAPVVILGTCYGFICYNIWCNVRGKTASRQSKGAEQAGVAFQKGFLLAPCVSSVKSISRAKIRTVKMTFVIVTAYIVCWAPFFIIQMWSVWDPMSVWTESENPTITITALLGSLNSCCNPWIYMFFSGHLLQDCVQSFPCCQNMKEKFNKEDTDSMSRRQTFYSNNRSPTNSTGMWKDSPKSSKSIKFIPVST
Compound,Ki(h-V1a)/Ki(h-V1b) [1],Ki [2] [nM]
"CCOc1ncccc1[C@]1(NC(=O)N2CCN(C3CCN(C4COC4)CC3)CC2)C(=O)N(S(=O)(=O)c2ccc(OC)cc2OC)c2ccc(C#N)cc21 [Example 1, (S)—N-(5-cyano-1-((2,4-dimethoxyphenyl)sulfonyl)-3-(2-ethoxypyridin-3-yl)-2-oxoindolin-3-yl)-4-(1-(oxetan-3-yl)piperidin-4-yl)piperazine-1-carboxamide]",+++ (>75),
"CCOc1ncccc1[C@]1(NC(=O)N2CCN(C3CCN(C4COC4)CC3)CC2)C(=O)N(S(=O)(=O)c2ccc(OC)cc2F)c2ccc(C#N)cc21 [Example 6, (S)—N-(5-cyano-3-(2-ethoxypyridin-3-yl)-1-((2-fluoro-4-methoxyphenyl)sulfonyl)-2-oxoindolin-3-yl)-4-(1-(oxetan-3-yl)piperidin-4-yl)piperazine-1-carboxamide]",+++ (>75),
"CCOc1ncccc1[C@]1(NC(=O)N2CCN(C3CCN(C4COC4)CC3)CC2)C(=O)N(S(=O)(=O)c2ccc(OC)cc2OC)c2cc(F)c(C#N)cc21 [Example 7A, (S)—N-(5-cyano-1-((2,4-dimethoxyphenyl)sulfonyl)-3-(2-ethoxypyridin-3-yl)-6-fluoro-2-oxoindolin-3-yl)-4-(1-(oxetan-3-yl)piperidin-4-yl)piperazine-1-carboxamide]",+++ (>75),< 1
"CCOc1ncccc1[C@]1(NC(=O)N2CCN(C3CCN(C4COC4)CC3)CC2)C(=O)N(S(=O)(=O)c2cc(F)c(OC)cc2OC)c2ccc(C#N)cc21 [Example 8, (S)—N-(5-cyano-3-(2-ethoxypyridin-3-yl)-1-((5-fluoro-2,4-dimethoxyphenyl)sulfonyl)-2-oxoindolin-3-yl)-4-(1-(oxetan-3-yl)piperidin-4-yl)piperazine-1-carboxamide]",+++ (>75),
"CCOc1ncccc1[C@]1(NC(=O)N2CCN(C3CCN(C4COC4)CC3)CC2)C(=O)N(S(=O)(=O)c2ccc(OC)cc2OC)c2cc(F)c(F)cc21 [Example 9, (S)—N-(1-((2,4-dimethoxyphenyl)sulfonyl)-3-(2-ethoxypyridin-3-yl)-5,6-difluoro-2-oxoindolin-3-yl)-4-(1-(oxetan-3-yl)piperidin-4-yl)piperazine-1-carboxamide]",+++ (>75),
"CCOc1ncccc1[C@]1(NC(=O)N2CCN(C3CCN(C4COC4)CC3)CC2)C(=O)N(S(=O)(=O)c2ccc(OC)cc2OC)c2ccc(Cl)cc21 [Example 10, (S)—N-(5-chloro-1-((2,4-dimethoxyphenyl)sulfonyl)-3-(2-ethoxypyridin-3-yl)-2-oxoindolin-3-yl)-4-(1-(oxetan-3-yl)piperidin-4-yl)piperazine-1-carboxamide]",+++ (>75),
"CCOc1ncccc1[C@]1(NC(=O)N2CCC(C3CCN(C4COC4)CC3)CC2)C(=O)N(S(=O)(=O)c2ccc(OC)cc2OC)c2ccc(C#N)cc21 [Example 11, (S)—N-(5-cyano-1-((2,4-dimethoxyphenyl)sulfonyl)-3-(2-ethoxypyridin-3-yl)-2-oxoindolin-3-yl)-1′-(oxetan-3-yl)-[4,4′-bipiperidine]-1-carboxamide]",+++ (>75),< 1
"CCOc1ncccc1[C@]1(NC(=O)N2CCC(N3CCN(C4COC4)CC3)CC2)C(=O)N(S(=O)(=O)c2ccc(C#N)cc2)c2ccc(C#N)cc21 [Example 12, (S)—N-(5-cyano-1-((4-cyanophenyl)sulfonyl)-3-(2-ethoxypyridin-3-yl)-2-oxoindolin-3-yl)-4-(4-(oxetan-3-yl)piperazin-1-yl)piperidine-1-carboxamide]",++ (25-75),
"CCOc1ncccc1[C@]1(NC(=O)N2CCC(N3CCN(C4COC4)CC3)CC2)C(=O)N(S(=O)(=O)c2ccc(OC)cc2)c2ccc(C#N)cc21 [Example 13, (S)—N-(5-cyano-3-(2-ethoxypyridin-3-yl)-1-((4-methoxyphenyl)sulfonyl)-2-oxoindolin-3-yl)-4-(4-(oxetan-3-yl)piperazin-1-yl)piperidine-1-carboxamide]",+++ (>75),
"COc1ccc(S(=O)(=O)N2C(=O)C(NC(=O)N3CCN(C4CCN(C5COC5)CC4)CC3)(c3cccnc3OC)c3cc(C#N)ccc32)c(OC)c1 (stereo not shown) [Example 15, N-(5-cyano-1-((2,4-dimethoxyphenyl)sulfonyl)-3-(2-methoxypyridin-3-yl)-2-oxoindolin-3-yl)-4-(1-(oxetan-3-yl)piperidin-4-yl)piperazine-1-carboxamide]",+++ (>75),
"CCOc1ncccc1[C@]1(NC(=O)N2CCC(N3C[C@@H]4C[C@H]3CN4C3COC3)CC2)C(=O)N(S(=O)(=O)c2ccc(OC)cc2OC)c2ccc(C#N)cc21 [Example 17, N—((S)-5-cyano-1-((2,4-dimethoxyphenyl)sulfonyl)-3-(2-ethoxypyridin-3-yl)-2-oxoindolin-3-yl)-4-((1S,4S)-5-(oxetan-3-yl)-2,5-diazabicyclo[2.2.1]heptan-2-yl)piperidine-1-carboxamide]",++ (25-75),
"CCOc1ncccc1[C@]1(NC(=O)N2CCN(C3CCN(C4COC4)CC3)CC2)C(=O)N(S(=O)(=O)c2ccc(OC)c(C)c2C)c2ccc(C#N)cc21 [Example 18, (S)—N-(5-cyano-3-(2-ethoxypyridin-3-yl)-1-((4-methoxy-2,3-dimethylphenyl)sulfonyl)-2-oxoindolin-3-yl)-4-(1-(oxetan-3-yl)piperidin-4-yl)piperazine-1-carboxamide]",+ (10-<25),
"CCOc1ncccc1[C@]1(NC(=O)N2CCN(C3CCN(CC4COC4)CC3)CC2)C(=O)N(S(=O)(=O)c2ccc(OC)cc2OC)c2ccc(C#N)cc21 [Example 19, (S)—N-(5-cyano-1-((2,4-dimethoxyphenyl)sulfonyl)-3-(2-ethoxypyridin-3-yl)-2-oxoindolin-3-yl)-4-(1-(oxetan-3-ylmethyl)piperidin-4-yl)piperazine-1-carboxamide]",+++ (>75),10 to 100
"CCOc1ncccc1[C@]1(NC(=O)N2CCN(C3CCN(C4COC4)CC3)CC2)C(=O)N(S(=O)(=O)c2ccc(OC)cc2)c2ccc(C#N)cc21 [Example 24, N-[(3S)-5-cyano-3-(2-ethoxy-3-pyridyl)-1-(4-methoxyphenyl)sulfonyl-2-oxo-indolin-3-yl]-4-[1-(oxetan-3-yl)-4-piperidyl]piperazine-1-carboxamide]",+++ (>75),10 to 100
"CCOc1ncccc1[C@]1(NC(=O)N2CCN(C3CCN(C4COC4)CC3)CC2)C(=O)N(S(=O)(=O)c2ccc(OC)cn2)c2ccc(C#N)cc21 [Example 25, N-[(3S)-5-cyano-3-(2-ethoxy-3-pyridyl)-1-[(5-methoxy-2-pyridyl)sulfonyl]-2-oxo-indolin-3-yl]-4-[1-(oxetan-3-yl)-4-piperidyl]piperazine-1-carboxamide]",+++ (>75),1 to 10
"CCOc1ncccc1[C@]1(NC(=O)N2CCN(C3CCN(C4COC4)CC3)CC2)C(=O)N(S(=O)(=O)c2ccc(F)cc2OC)c2ccc(C#N)cc21 [Example 26, N-[(3S)-5-cyano-3-(2-ethoxy-3-pyridyl)-1-(4-fluoro-2-methoxy-phenyl)sulfonyl-2-oxo-indolin-3-yl]-4-[1-(oxetan-3-yl)-4-piperidyl]piperazine-1-carboxamide]",+++ (>75),1 to 10
"COc1ccc(S(=O)(=O)N2C(=O)[C@@](NC(=O)N3CCC(C4CCN(C5COC5)CC4)CC3)(c3cccnc3OC)c3cc(C#N)ccc32)c(OC)c1 [Example 27, N-[(3S)-5-cyano-1-(2,4-dimethoxyphenyl)sulfonyl-3-(2-methoxy-3-pyridyl)-2-oxo-indolin-3-yl]-4-[1-(oxetan-3-yl)-4-piperidyl]piperidine-1-carboxamide]",+++ (>75),< 1
"CCOc1ncccc1[C@]1(NC(=O)N2CCN(C3CCN(C4COC4)CC3)CC2)C(=O)N(S(=O)(=O)c2ccc(F)cc2)c2ccc(C#N)cc21 [Example 28, N-[(3S)-5-cyano-3-(2-ethoxy-3-pyridyl)-1-(4-fluorophenyl)sulfonyl-2-oxo-indolin-3-yl]-4-[1-(oxetan-3-yl)-4-piperidyl]piperazine-1-carboxamide]",+++ (>75),10 to 100
"COc1ccc(S(=O)(=O)N2C(=O)[C@@](NC(=O)N3CCN(C4CCN(C5COC5)CC4)CC3)(c3cccnc3OC)c3cc(C#N)ccc32)nc1 [Example 29, N-[(3S)-5-cyano-3-(2-methoxy-3-pyridyl)-1-[(5-methoxy-2-pyridyl)sulfonyl]-2-oxo-indolin-3-yl]-4-[1-(oxetan-3-yl)-4-piperidyl]piperazine-1-carboxamide]",+ (10-<25),1 to 10
"COc1cc(F)ccc1S(=O)(=O)N1C(=O)[C@@](NC(=O)N2CCN(C3CCN(C4COC4)CC3)CC2)(c2cccnc2OC)c2cc(C#N)ccc21 [Example 30, N-[(3S)-5-cyano-1-(4-fluoro-2-methoxy-phenyl)sulfonyl-3-(2-methoxy-3-pyridyl)-2-oxo-indolin-3-yl]-4-[1-(oxetan-3-yl)-4-piperidyl]piperazine-1-carboxamide]",+++ (>75),1 to 10
"COc1ccc(S(=O)(=O)N2C(=O)[C@@](NC(=O)N3CCC(C4CCN(C5COC5)CC4)CC3)(c3cccnc3OC)c3cc(C#N)ccc32)nc1 [Example 39, N-[(3S)-5-cyano-3-(2-methoxy-3-pyridyl)-1-[(5-methoxy-2-pyridyl)sulfonyl]-2-oxo-indolin-3-yl]-4-[1-(oxetan-3-yl)-4-piperidyl]piperidine-1-carboxamide]",,< 1
